Read-outs that look alike come from different tables or passages of the source.
Columns and labels:
Caco-2 cells [1] = details: positive control, 5 µM
Experimental: (§1) Flow cytometry was used to analyze the effect of T. carnosus extracts on intracellular ROS, modulation of mitochondrial membrane potential (MMP), cell cycle arrest, and apoptotic/necrotic cell death induction.
(§2) Both one- and two-color assays were performed using a BD Accuri™ C6 cytometer (Becton Dickinson, Franklin Lakes, NJ, USA), and 10,000 gated events were collected from each sample [1]. For flow cytometry assays, cells were handled as described previously but seeded at a density 5 × 10^4 cells/mL (750 μL/well) in 12-well plates. Caco-2 and HepG2 cells were incubated for 24 h with the extracts (100 µg/mL) or individual phytochemicals (50 µM) diluted in FBS-free culture media h. After incubation, test solutions were removed; the cells were washed with PBS and detached from the plates using trypsin-EDTA. Once transferred to centrifuge tubes, the cells were centrifuged (bench micro-centrifuge; 3000 rpm; 3 min), the supernatant was discarded, and a new wash cycle was performed. The cells were then equally divided for each assay. A negative control was used in all assays consisting of nonexposed cells incubated only with culture media.
(§3) Mitochondrial membrane potential (MMP) was evaluated using 5,5″,6,6″-tetrachloro-1,1″,3,3″-tetraethylbenzimidazolylcarbocyanineiodide (JC-1). Cells were processed as described for DCFDA but incubated with 200 µL of JC-1 (2 µM, in FBS-free DMEM) for 20 min (37 °C, in the dark).

HepG2 cells [2] = assay: Mitochondrial membrane potential (JC-1, flow cytometry), HepG2; format: cell-based, human; details: positive control, 5 µM
Experimental: as §1, §2, §3

Caco-2 cells [3] = details: cited from earlier work
HepG2 cells [4] = details: cited from earlier work
Caco-2 cells [5] = assay: Cell cycle arrest (PI, flow cytometry), Caco-2; format: cell-based; details: compound 50 µM, 24 h
Experimental: (§4) The cells were then equally divided for each assay.
(§5) Cell cycle arrest assessment was performed as described in [1]. Cells were processed as described above until cell detachment and centrifuged, after which the second washing step was performed with ice-cold PBS (0 °C). After centrifugation, the supernatant was discarded, and cells were fixed with 500 µL of ethanol:PBS solution (70:30, % v/v, previously cooled at −20 °C) for at least 4 h at −20 °C. After fixation, two washing cycles were performed: the first with ice-cold PBS (0 °C) and the second with room-temperature PBS, followed by the addition of 200 µL of a PBS solution containing PI (50 µg/mL), RNAse A (50 µg/mL), and Triton X-100 (0.1%). Cells were incubated for 30 min at 37 °C, and then cells were washed once with PBS to remove the staining solution. After resuspension in PBS, the data were acquired.

[6] = system: nasopharyngeal carcinoma cells NPC-039; design: method as in PMID 34165247; details: cited from earlier work
Caco-2 cells [7] = assay: Alamar Blue cell viability assay, Caco-2; format: cell-based, human; details: Caco-2; for IC50: Homo sapiens
Experimental: (§6) The safety profile of T. carnosus AD and HE extracts was evaluated in Caco-2 and HepG2 cells using an Alamar Blue® (Invitrogen; Alfagene, Lisboa, Portugal) assay. An initial screening was performed for all extracts at concentrations ranging between 100 and 1000 µg/mL. Due to the higher toxicity of the HE extracts, which was previously described for various extracts of Thymus species using the same extraction methods (e.g., T. mastichina and Thymus zygis), a different set of concentrations was used for the HE extracts (between 100 and 300 µg/mL for Caco-2 cells and 50 and 150 µg/mL for HepG2 cells). Figure 1 presents the data related to the cell viability assays in Caco-2 (panels A–E) and HepG2 cells (panels F–J) exposed to T. carnosus extracts, as indicated.
(§7) The safety profile of T. carnosus extracts was assessed in Caco-2 and HepG2 cells. Caco-2 (human colon adenocarcinoma cell line) were obtained from CLS (Cell Lines Service, Eppelheim, Germany), and HepG2 (human hepatocellular carcinoma cell line) were obtained from ATCC (American Type Culture Collection, Manassas, VA, USA).
(§8) Cell culture maintenance, handling, subculturing, and seeding were performed as described by Silva et al., 2020 [5], and cell viability was assessed using an Alamar Blue® assay, as described by Andreani et al., 2014 [64]. Concentrations ranged between 100 and 1000 µg/mL for AD extracts in both cell lines and 100 to 300 µg/mL or 50 to 150 µg/mL for HE extracts in Caco-2 and HepG2 cells, respectively. The effect of individual compounds on cell viability was assessed for concentrations ranging from 50 to 300 µM. All test solutions were prepared by diluting the samples in FBS-free culture media from the stock solutions described in Section 3.2, just prior to being used.
(§9) The results are presented as mean ± SD of at least three independent assays. The calculation of IC50 values was performed as described by Silva et al., 2020 [5]. Data analysis, graphical design, and statistical analysis were performed using Microsoft Office Excel (Professional Plus 2019; Microsoft Corporation, Washington, DC, USA) and GraphPad Prism (Version 8; GraphPad Software Inc., San Diego, CA, USA). Flow cytometry data analysis was performed using BD Accuri™ C6 Software, version 1.0.264.21 (Becton Dickinson, San Diego, CA, USA).

HepG2 cells [8] = assay: Alamar Blue cell viability assay, HepG2; format: cell-based, human
Experimental: as §6, §7, §8, §9

HepG2 cells [9] = assay: Cell cycle arrest (PI, flow cytometry), HepG2; format: cell-based, human; details: compound 50 µM, 24 h
Experimental: as §4, §5

Caco-2 cells [10] = assay: Annexin V-FITC/PI apoptosis/necrosis, Caco-2; format: cell-based; details: compound 50 µM, 24 h
Experimental: as §4
(§10) For the assessment of apoptotic/necrotic cell death, an Annexin V-FITC (Thermo Fisher Scientific, Waltham, MA, USA) and propidium iodide (PI; Merck, Darmstadt, Germany) double-staining assay was used to evaluate the apoptotic/necrotic cell death induced by T. carnosus extracts and by individual phytochemicals, as described previously. Briefly, after detachment and washing, the supernatant was discarded, and 200 µL of Annexin V-FITC (1:200 dilution in Annexin-binding buffer [10 mM HEPES sodium salt, 150 mM NaCl, 5 mM KCl, 5 mM MgCl2, and 1.8 mM CaCl2; pH = 7.4]) was added. Cells were incubated for 20 min (room temperature, in the dark). After incubation, 5 µL of propidium iodide (PI; 50 µg/mL) was added, the cells were incubated for 5 min on ice (in the dark), and the data were acquired.

HepG2 cells [11] = assay: Annexin V-FITC/PI apoptosis/necrosis, HepG2; format: cell-based, human; details: compound 50 µM, 24 h
Experimental: as §4, §10

HepG2 cells [12] = assay: Intracellular ROS (DCFDA, flow cytometry), HepG2; format: cell-based, human; details: compound 50 µM, 24 h
Experimental: as §4
(§11) Intracellular ROS level assessment was performed as described by Silva et al., 2022 [65], using dichlorodihydrofluorescein diacetate (DCFDA). Cells obtained in the previous step were centrifuged, the supernatant discarded, and 200 µL of DCFDA (10 µM in FBS-free DMEM) was added. Cells were incubated for 45 min (37 °C, in the dark), washed to remove excess probe, and resuspended in PBS for data acquisition.

[13] = system: nasopharyngeal carcinoma cells NPC-BM; design: method as in PMID 34165247; details: cited from earlier work
Caco-2 cells [14] = assay: Intracellular ROS (DCFDA, flow cytometry), Caco-2; format: cell-based; details: compound 50 µM, 24 h
Experimental: as §4, §11

[15] = system: hepatocarcinoma cells (HuH7); design: method as in PMID 20415421; details: 20-80 µM; cited from earlier work
[16] = design: method as in PMID 31344882, PMID 26042707; details: cited from earlier work

With N#CC(C#N)=NNc1ccc(OC(F)(F)F)cc1 [FCCP, carbonyl cyanide p-trifluoromethoxyphenylhydrazone] the “JC-1 FL2/FL1 ratio normalized by negative control, Caco-2” value (Caco-2 cells [1]) was 0.06 ± 0.01, the “reduction in MMP, Caco-2” value (Caco-2 cells [1]) was ~ 94% and the “JC-1 FL2/FL1 ratio normalized by negative control, HepG2” value (HepG2 cells [2]) was 0.10 ± 0.01. The “reduction in MMP, HepG2” value (HepG2 cells [2]) was ~ 90%.

In the case of O=c1cc(-c2ccc(O)c(O)c2)oc2cc(O[C@@H]3O[C@H](CO)[C@@H](O)[C@H](O)[C@H]3O)cc(O)c12 [Luteolin-7-O-glucoside, luteolin-7-O-glucoside], the IC50 (Caco-2 cells [3]; read-out: concentration reducing Caco-2 cell viability to 50% of control, 48 h) is given as roughly 55 µM, the IC50 (HepG2 cells [4]; read-out: concentration reducing HepG2 cells' viability to ~50%) is given as 44.6 µM and the “cell cycle effect, Caco-2” value (Caco-2 cells [5]) is given as “cell cycle arrest in G0/G1”. The “MMP modulation, NPC-039” value ([6]; 20, 40 and 80 µM) was “MMP depolarization”, the “cell cycle effect, NPC-039” value [6] was “cell cycle arrest in the S and G2/M phases” and the “concentrations reducing Caco-2 cell viability (p < 0.05)” value (Caco-2 cells [7]) was no less than 75 µM. The “reduction in HepG2 cell viability” value (HepG2 cells [8]; 300 µM, 48 h) was ~ 30%, the “concentrations giving significant effect on HepG2 cell viability” value (HepG2 cells [8]; 48 h exposure) was no less than 100 µM and the “cell cycle effect, HepG2” value (HepG2 cells [9]) was “induced cell cycle arrest in both cell lines but in different phases”. The “cell death induction, Caco-2” value (Caco-2 cells [10]) was “did not induce cell death”, the “cell death induction, HepG2” value (HepG2 cells [11]) was “did not induce cell death” and the “change in intracellular ROS, HepG2” value (HepG2 cells [12]) was “significant (p < 0.05) increase in intracellular HepG2 ROS levels”. The “MMP modulation, NPC-BM” value ([13]; 20, 40 and 80 µM) was “MMP depolarization” and the “cell cycle effect, NPC-BM” value [13] was “cell cycle arrest in the S and G2/M phases”.

In the case of CC1(C)CC[C@]2(C(=O)O)CC[C@]3(C)C(=CC[C@@H]4[C@@]5(C)CC[C@H](O)C(C)(C)[C@@H]5CC[C@]43C)[C@@H]2C1 [Oleanolic acid, oleanolic acid], the “concentrations reducing Caco-2 cell viability” value (Caco-2 cells [3]; 24 h) is given as no less than 5 µM, the “concentrations reducing HepG2 cell viability” value (HepG2 cells [4]; 48 h) is given as no less than 2 µM and the IC50 (HepG2 cells [4]; read-out: IC50, HepG2 cells, 72 h) is given as greater than 100 µM. For the same compound, the “cell cycle effect, Caco-2” value (Caco-2 cells [5]) was “cell cycle arrest in G0/G1”, the “change in intracellular ROS, Caco-2” value (Caco-2 cells [14]) was “increase in ROS” and the IC50 (Caco-2 cells [7]; 24 h exposure, read-out: IC50 (µM) - Caco-2 cells: 24 h) was 78.5 ± 3.57 µM. For the same compound, the IC50 (Caco-2 cells [7]; 48 h exposure, read-out: IC50 (µM) - Caco-2 cells: 48 h) was 45.9 ± 2.47 µM, the IC50 (HepG2 cells [8]; Homo sapiens, HepG2, 24 h exposure, read-out: IC50 (µM) - HepG2 cells: 24 h) was 150 ± 7.66 µM and the “percentage of cells in late apoptosis, Caco-2” value (Caco-2 cells [10]) was ~ 29%. For the same compound, the “percentage of cells in necrosis, Caco-2” value (Caco-2 cells [10]) was ~ 50%, the “MMP modulation, HuH7” value [15] was “reduce MMP” and the “cell death induction, HepG2” value (HepG2 cells [11]) was “slight reduction in the percentage of healthy cells”. For the same compound, the “change in intracellular ROS, HepG2” value (HepG2 cells [12]) was “significant (p < 0.05) increase in intracellular HepG2 ROS levels”, the “lipophilicity” value [16] was “high lipophilicity” and the “water solubility” value [16] was “poor water solubility”.

For COc1cc(/C=C/C(=O)CC(=O)/C=C/c2ccc(O)c(OC)c2)ccc1O [curcumin], the “MMP modulation, HepG2” value (HepG2 cells [4]; 27-108 µM) is given as “mitochondrial membrane hyperpolarization in HepG2 cells, followed by depolarization”.

For O=c1c(O[C@@H]2O[C@H](CO)[C@@H](O)[C@H](O)[C@H]2O)c(-c2ccc(O)c(O)c2)oc2cc(O)cc(O)c12 [quercetin-3-O-glucoside], the “cytotoxicity in Caco-2 cells relative to quercetin aglycone” value (Caco-2 cells [3]) is given as “lower cytotoxicity in Caco-2 cells than aglycone”.

In the case of O=C(O)[C@H]1O[C@@H](Oc2c(-c3ccc(O)c(O)c3)oc3cc(O)cc(O)c3c2=O)[C@H](O)[C@@H](O)[C@@H]1O [quercetin-3-O-glucuronide], the “cytotoxicity in Caco-2 cells relative to quercetin aglycone” value (Caco-2 cells [3]) is given as “lower cytotoxicity in Caco-2 cells than aglycone”.

Reference: publication PMC11120720, “Linking Variability in Phytochemical Composition with Safety Profile of Thymus carnosus Boiss. Extracts: Effect of Major Compounds and Evaluation of Markers of Oxidative Stress and Cell Death” (International Journal of Molecular Sciences, 2024)
